According to patent US6303785A, “Compounds having activity as inhibitors of cytochrome P450RAI” (Allergan Sales, Inc., priority 2000, dated 2001):

How the values were obtained:
human skin = conditions: known; cited from earlier work
skin of hairless mice = assay: Topical Skin Irritation Test (cutaneous toxicity / Blackjack score); type: in vivo, hairless mouse (Cr1:SKH1-hrBR); conditions: topical once daily days 1-5, mean±SD, range 0-21
Description: Mice were housed individually throughout the dosing period.
Doses are disclosed as nmol/25 g.
The grading scale used is as follows:
Values can range from 0-9.
Values can range from 0-8.

RARβ [1] = assay: chimeric receptor transactivation assay, RARβ; type: cell-based; conditions: read-out: RAR EC50 β
Description: (§1) Assays described below measure the ability of a compound to bind to, and/or activate various retinoid receptor subtypes. When in these assays a compound binds to a given receptor subtype and activates the transcription of a reporter gene through that subtype, then the compound is considered an agonist of that receptor subtype. […] In the below described assays the ability of the compounds to bind to RARα, […], RARγ, […] and RXRγ receptors, and the ability or inability of the compounds to activate transcription of a reporter gene through these receptor subtypes can be tested.
(§2) The results obtained in this assay are expressed in EC50 numbers, as they are also in the chimeric receptor transactivation assay. The results of ligand binding assay are expressed in Kd numbers.

RARγ = assay: chimeric receptor transactivation assay, RARγ; type: cell-based; conditions: read-out: RAR EC50 γ
Description: as §1, §2

RARβ [2] = target: T1, RARβ (Homo sapiens, UniProt P10826); assay: ligand binding assay, RARβ; conditions: read-out: RAR Kd β
T1 sequence (P10826 1-455): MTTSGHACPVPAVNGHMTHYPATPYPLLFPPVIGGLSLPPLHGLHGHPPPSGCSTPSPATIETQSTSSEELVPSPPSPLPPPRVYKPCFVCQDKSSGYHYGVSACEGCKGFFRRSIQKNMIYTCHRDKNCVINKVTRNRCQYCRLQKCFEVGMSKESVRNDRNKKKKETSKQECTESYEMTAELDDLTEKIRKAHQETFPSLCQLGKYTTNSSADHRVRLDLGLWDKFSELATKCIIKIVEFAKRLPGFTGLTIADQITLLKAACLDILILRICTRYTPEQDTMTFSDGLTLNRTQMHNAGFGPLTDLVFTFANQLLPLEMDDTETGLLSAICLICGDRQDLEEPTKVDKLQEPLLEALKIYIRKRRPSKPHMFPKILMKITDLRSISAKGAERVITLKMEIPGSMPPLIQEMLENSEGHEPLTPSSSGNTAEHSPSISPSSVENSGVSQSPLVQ
Description: as §1, §2

psoriasis = conditions: prior art; cited from earlier work

Compound	Cutaneous Toxicity Score (Blackjack Score) (skin of hairless mice; 100 nmole (per 25 g))	Cutaneous Toxicity Score (Blackjack Score) (skin of hairless mice; 1000 nmole (per 25 g))	Cutaneous Toxicity Score (Blackjack Score) (skin of hairless mice; 300 nmole (per 25 g))	further results
CC1=C(/C=C/C(C)=C/C=C/C(C)=C\C(=O)O)C(C)(C)CCC1 [13-cis RA]				skin irritation in humans (in words) (human skin): substantial skin irritation
CC1=C(/C=C/C(C)=C/C=C/C(C)=C/C(=O)O)C(C)(C)CCC1 [ATRA, all-trans-retinoic acid]				skin irritation in humans (in words) (human skin): substantial skin irritation
CC1(C)CCC(=O)c2ccc(C#Cc3ccc(CC(=O)O)cc3)cc21 [Compound 5, 4-[(8,8-Dimethyl1-5-oxo-5,6,7,8-tetrahydro-naphthalene-2-yl-ethynyl)-phenyl]-acetic acid]	0	6 ± 3		
CN(C1CC1)C1CCC(C)(C)c2cc(C#Cc3ccc(CC(=O)O)cc3)ccc21 (centres unmarked) [Compound 8, 4-[(5-(Cyclopropyl-methyl-amino)-8,8-dimethyl-5,6,7,8-tetrahydro-naphthalene-2-yl-ethynyl)-phenyl]-acetic acid]	5 ± 2	12 ± 1	8 ± 3	
CC1(C)CCC(=O)c2ccc(C#Cc3ccc(C(=O)O)c(F)c3)cc21 [Compound 10, 2-Fluoro-4(8,8dimethyl-5-oxo-5,6,7,8-tetrahydro-naththalen-2yl-ethynyl)benzoic acid]				EC50 (RARβ [1]): 0.3 nM; EC50 (RARγ): 6 nM
CC1(C)CCC(=O)c2ccc(C#Cc3ccc(CC(=O)O)c(F)c3)cc21 [Compound 15, [2-Fluoro-4-(8,8-dimethyl-5-oxo-5,6,7,8-tetrahydro-naphthalene-2-yl-ethynl)phenyl]-acetic acid]	1 ± 1	5 ± 2		
CN(C1CC1)C1CCC(C)(C)c2cc(C#Cc3ccc(CC(=O)O)c(F)c3)ccc21 (centres unmarked) [Compound 18, [4-(5-(Cyclopropyl-methyl-amino)-8,8-dimethyl-5,6,7,8-tetrahydro-naphthalene-2-yl-ethynyl)-2-fluoro-phenyl]-acetic acid]	0 ± 0	10 ± 2	5 ± 2	
CC1(C)CN(C2CC2)Cc2ccc(C#Cc3ccc(CC(=O)O)c(F)c3)cc21 [Compound 22, [4-(2-Cyclopropyl-4,4-dimethyl-1 2,3,4-tetrahydro-isoquinolin-6-yl-ethynyl)-2-fluoro-phenyl]-acetic acid]	0 ± 0	1 ± 1	0 ± 0	
CC1(C)CC(C)(C)c2cc(C#Cc3ccc(CC(=O)O)cc3)cc(C3CC3)c2O1 [Compound 36, [4-(8-Cyclopropyl-2,2,4,4-tetramethyl-chroman-6-yl-ethynyl)phenyl]acetic acid]	1 ± 1	11 ± 0		
CC1(C)CC(C)(C)c2cc(C#Cc3ccc(CC(=O)O)c(F)c3)cc(C3CC3)c2O1 [Compound 38, [4(8-Cyclopropyl-2,2,4,4tetramethyl-chroman-6-yl-ethynyl)-2-fluoro-phenyl]acetic acid]	1 ± 1	10 ± 1		
CC1(C)CC2(CC2)Oc2c(C3CC3)cc(C#Cc3ccc(CC(=O)O)cc3)cc21 [Compound 48, Benzeneacetic acid, 4-[(8-cyclopropyl-3,4-dihydro-4,4-dimethylspiro[2H 1-benzopyran-2.1'-cyclopropane]-6-yl)ethanyl]-]	1 ± 1	7 ± 2	3 ± 1	
CC1(C)CC2(CC2)Oc2c(C3CC3)cc(C#Cc3ccc(CC(=O)O)c(F)c3)cc21 [Compound 50, 4-[(8-Cyclopropyl-3,4-dihydro-4,4-dimethylspiro[2H-1-benzopyran-2,1'-cyclopropane]-6-yl)ethynyl]-2-fluoro-benzeneacetic acid]	1 ± 0	8 ± 2	3 ± 2	
CC1(C)CC2(CC2)Oc2c(C3CC3)cc(C(=O)Oc3ccc(CC(=O)O)cc3)cc21 [Compound 58, Spiro[2H-1-benzopyran-2,1'-cyclopropane]-6-carboxylic acid, 8-cyclopropyl-3,4-dihydro-4,4-dimethyl-, 4-(carboxymethyl)phenyl ester]	0 ± 0	0 ± 0	0 ± 0	
CCc1cc(C#Cc2ccc(C(=O)O)cc2)ccc1C1(OCc2ccccc2)CC1 [Compound 93, 4-[4-(1-Benzyloxycyclopropyl)-3-ethyl-phenylethynyl]-benzoic acid]				EC50 (RARβ [1]): 20 nM; EC50 (RARγ): 10 nM
O=C(O)c1ccc(C#Cc2ccc(C3(N(Cc4ccccc4)Cc4ccccc4)CC3)cc2)cc1 [Compound 114]				Kd (RARβ [2]): > 10 nM
CC1(C)CCC(n2ccnc2)c2ccc(C#Cc3ccc(CC(=O)O)cc3)cc21 (centres unmarked) [Compound 137, [4-(5-Imidazol-1-yl-8,8-dimethyl-5,6,7,8-tetrahydro-naphthalen-2-yl-ethynyl)-phenyl]-acetic acid]	1 ± 1	5 ± 2	1 ± 1	
CCOC(=O)/C=C(C)/C=C/C=C(C)/C=C/c1c(C)cc(OC)c(C)c1C [etretinate]				skin irritation in humans (in words) (human skin): substantial skin irritation
Clc1cccc(C(c2ccc3[nH]cnc3c2)n2ccnc2)c1 (centres unmarked) [liarozole]				retinoid-like effect of treatment (in words) (psoriasis): amelioration of psoriasis
